In patent publication US8106055B2, “Substituted amide compounds” (Gruenenthal GmbH, priority 2007, dated 2012):

Assays:
[1] = target: T1, human bradykinin 1 receptor (B1R) (Homo sapiens, UniProt P46663); assay: Functional investigation on the human bradykinin 1 receptor (B1R), Ca2+ FLIPR assay in CHO K1 hB1R cells; format: cell-based; conditions: CHO-K1, B1R antagonism human; test substance 10 μM; Ca2+ FLIPR, CHO K1 hB1R cells; read-out: B1R Ant. h [10 μM] % Inhibition
T1 construct: expressed in transfected cells; host or cells: CHO K1 cells
T1 sequence (P46663 1-353): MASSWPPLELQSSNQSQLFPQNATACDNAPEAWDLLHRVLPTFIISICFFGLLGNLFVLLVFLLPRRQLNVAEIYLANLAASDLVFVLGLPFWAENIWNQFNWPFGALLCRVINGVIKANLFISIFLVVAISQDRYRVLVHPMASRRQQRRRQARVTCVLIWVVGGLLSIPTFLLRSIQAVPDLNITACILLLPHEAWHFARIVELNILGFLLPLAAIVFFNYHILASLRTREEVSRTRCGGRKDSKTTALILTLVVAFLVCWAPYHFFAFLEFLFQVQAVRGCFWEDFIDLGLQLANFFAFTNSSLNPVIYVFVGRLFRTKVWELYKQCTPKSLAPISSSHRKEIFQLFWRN
Procedure, shortened: (§1)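 Fluo-4 Ca2+ readout, peak fluorescence. Stable CHO K1 transfectants; compound pre-incubated 10-20 min, then EC80 agonist—Lys-Des-Arg9-BK for hB1R, Des-Arg9-BK for rB1R. % inhibition vs maximal inhibition; IC50 from multiple concentrations, duplicate/triplicate, ≥2 independent runs.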

[2] = target: T2, bradykinin 1 receptor (B1R) of the rat (Rattus norvegicus, UniProt P97583); assay: Functional investigation on the rat bradykinin 1 receptor (B1R), Ca2+ FLIPR assay in CHO K1 rB1R cells; format: cell-based; conditions: CHO-K1, B1R antagonism rat; test substance 10 μM; Ca2+ FLIPR, CHO K1 rB1R cells; read-out: B1R Ant. r [10 μM] % Inhibition
T2 construct: expressed in transfected cells; host or cells: CHO K1 cells
T2 sequence (P97583 1-337): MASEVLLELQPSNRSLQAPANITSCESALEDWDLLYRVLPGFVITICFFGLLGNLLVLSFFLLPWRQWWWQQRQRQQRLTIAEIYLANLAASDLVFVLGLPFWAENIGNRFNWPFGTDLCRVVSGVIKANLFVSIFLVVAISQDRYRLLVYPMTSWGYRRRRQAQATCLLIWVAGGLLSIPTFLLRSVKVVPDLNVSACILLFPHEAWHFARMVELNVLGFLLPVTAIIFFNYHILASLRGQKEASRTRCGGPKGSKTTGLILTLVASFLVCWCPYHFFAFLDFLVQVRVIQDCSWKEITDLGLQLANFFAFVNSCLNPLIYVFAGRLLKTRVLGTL
Procedure, shortened: as §1

Row | SMILES | inhibition at 10 µM [1] | inhibition at 10 µM [2]
1 | CN(C)C(c1ccccc1)C1CCC(NC(=O)COCCN(C)S(=O)(=O)c2ccc(Cl)cc2Cl)CC1 (centres unmarked) [Example 33, 2-(2-(2,4-dichloro-N-methylphenylsulfonamido)ethoxy)-N-(4-((dimethylamino)(phenyl)methyl)cyclohexyl)acetamide] | 77% | 9%
2 | CN(C)C(c1ccccc1)C1CCC(NC(=O)COCCN(C)S(=O)(=O)c2c(F)c(F)c(F)c(F)c2F)CC1 (centres unmarked) [Example 136, N-(4-((dimethylamino)(phenyl)methyl)cyclohexyl)-2-(2-(2,3,4,5,6-pentafluoro-N-methylphenylsulfonamido)ethoxy)acetamide] | 87% | -2%
3 | COc1cc(C)c(S(=O)(=O)N(C)CCOCC(=O)NCC2CCC(C(c3ccccc3)N(C)C)CC2)c(C)c1 (centres unmarked) [Example 137, N-((4-((dimethylamino)(phenyl)methyl)cyclohexyl)methyl)-2-(2-(4-methoxy-N,2,6-trimethylphenylsulfonamido)ethoxy)acetamide] | 102% | 100%
4 | CN(C)C(c1cccs1)C1CCC(CCNC(=O)COC2CCN(S(=O)(=O)c3ccc(F)cc3)C2)CC1 (centres unmarked) [Example 138, N-(2-(4-((dimethylamino)(thiophen-2-yl)methyl)cyclohexyl)ethyl)-2-(1-(4-fluorophenylsulfonyl)pyrrolidin-3-yloxy)acetamide] | 2% | 30%
5 | CN(C)C(c1cccc(F)c1)C1CCC(NC(=O)COC2CCN(S(=O)(=O)c3cccc(C(F)(F)F)c3)C2)CC1 (centres unmarked) [Example 139, N-(4-((dimethylamino)(3-fluorophenyl)methyl)cyclohexyl)-2-(1-(3-(trifluoromethyl)phenylsulfonyl)pyrrolidin-3-yloxy)acetamide] | -5% | 21%
6 | Cc1cc(C)c(S(=O)(=O)N2CCC(OCC(=O)NC3CCC(C(c4cccc(F)c4)N(C)C)CC3)C2)c(C)c1 (centres unmarked) [Example 140, N-(4-((dimethylamino)(3-fluorophenyl)methyl)cyclohexyl)-2-(1-(mesitylsulfonyl)pyrrolidin-3-yloxy)acetamide] | 43% | 30%
7 | Cc1cc(C)c(S(=O)(=O)N2CCC(OCC(=O)NCC3CCC(C(c4cccc(F)c4)N(C)C)CC3)C2)c(C)c1 (centres unmarked) [Example 141, N-((4-((dimethylamino)(3-fluorophenyl)methyl)cyclohexyl)methyl)-2-(1-(mesitylsulfonyl)pyrrolidin-3-yloxy)acetamide] | 54% | 26%
8 | COc1ccc(S(=O)(=O)N(C)CCOCC(=O)NCC2CCC(C(c3cccs3)N(C)C)CC2)cc1 (centres unmarked) [Example 142, N-((4-((dimethylamino)(thiophen-2-yl)methyl)cyclohexyl)methyl)-2-(2-(4-methoxy-N-methylphenylsulfonamido)ethoxy)acetamide] | 50% | 41%
9 | COc1cc(C)c(S(=O)(=O)N2CCC(OCC(=O)NCC3CCC(C(c4ccccc4)N(C)C)CC3)CC2)c(C)c1C (centres unmarked) [Example 143, N-((4-((dimethylamino)(phenyl)methyl)cyclohexyl)methyl)-2-(1-(4-methoxy-2,3,6-trimethylphenylsulfonyl)piperidin-4-yloxy)acetamide] | 11% | 19%
10 | COc1cc(C)c(S(=O)(=O)N2CCCC(OCC(=O)NC3CCC(C(c4cccs4)N(C)C)CC3)C2)c(C)c1C (centres unmarked) [Example 144, N-(4-((dimethylamino)(thiophen-2-yl)methyl)cyclohexyl)-2-(1-(4-methoxy-2,3,6-trimethylphenylsulfonyl)piperidin-3-yloxy)acetamide] | 20% | 4%
11 | COc1cc(C)c(S(=O)(=O)N2CCCC(OCC(=O)NCC3CCC(C(c4cccc(F)c4)N(C)C)CC3)C2)c(C)c1C (centres unmarked) [Example 145, N-((4-((dimethylamino)(3-fluorophenyl)methyl)cyclohexyl)methyl)-2-(1-(4-methoxy-2,3,6-trimethylphenylsulfonyl)piperidin-3-yloxy)acetamide] | 12% | 33%
12 | COc1cc(C)c(S(=O)(=O)N2CCC(CCOCC(=O)NCC3CCC(C(c4ccccc4)N(C)C)CC3)CC2)c(C)c1C (centres unmarked) [Example 146, N-((4-((dimethylamino)(phenyl)methyl)cyclohexyl)methyl)-2-(2-(1-(4-methoxy-2,3,6-trimethylphenylsulfonyl)piperidin-4-yl)ethoxy)acetamide] | 23% | 26%
13 | CN(C)C(c1cccc(F)c1)C1CCC(CCNC(=O)COCC2CCCCN2S(=O)(=O)c2ccc(Cl)c(Cl)c2)CC1 (centres unmarked) [Example 147, 2-((1-(3,4-dichlorophenylsulfonyl)piperidin-2-yl)methoxy)-N-(2-(4-((dimethylamino)(3-fluorophenyl)methyl)cyclohexyl)ethyl)acetamide] | 52% | 27%
14 | COc1cc(C)c(S(=O)(=O)N(CCOCC(=O)NCC2CCC(C(c3ccccc3)N(C)C)CC2)Cc2ccccc2)c(C)c1 (centres unmarked) [Example 148, 2-(2-(N-benzyl-4-methoxy-2,6-dimethylphenylsulfonamido)ethoxy)-N-((4-((dimethylamino)(phenyl)methyl)cyclohexyl)methyl)acetamide] | 92% | 46%
15 | COc1cc(C)c(S(=O)(=O)N(CCOCC(=O)NCCC2CCC(C(c3cccs3)N(C)C)CC2)Cc2ccccc2)c(C)c1 (centres unmarked) [Example 149, 2-(2-(N-benzyl-4-methoxy-2,6-dimethylphenylsulfonamido)ethoxy)-N-(2-(4-((dimethylamino) (thiophen-2-yl)methyl)cyclohexyl)ethyl)acetamide] | 72% | 10%
16 | COc1ccc(S(=O)(=O)N2CCCCC2COCC(=O)NCC2CCC(C(c3ccccc3)N(C)C)CC2)cc1OC (centres unmarked) [Example 150, 2-((1-(3,4-Dimethoxyphenylsulfonyl)piperidin-2-yl)methoxy)-N-((4-((dimethylamino)(phenyl)methyl)cyclohexyl)methyl)acetamide] | 4% | 10%
17 | COc1ccc(S(=O)(=O)N2CCCCC2COCC(=O)NCC2CCC(C(c3cccc(F)c3)N(C)C)CC2)c(OC)c1 (centres unmarked) [Example 151, 2-((1-(2,4-dimethoxyphenylsulfonyl)piperidin-2-yl)methoxy)-N-((4-((dimethylamino)(3-fluorophenyl)methyl)cyclohexyl)methyl)acetamide] | 24% | 23%
18 | CN(C)C(c1cccs1)C1CCC(NC(=O)COCCN(C)S(=O)(=O)c2cccc(C(F)(F)F)c2)CC1 (centres unmarked) [Example 152, N-(4-((dimethylamino)(thiophen-2-yl)methyl)cyclohexyl)-2-(2-(N-methyl-3-(trifluoromethyl)phenylsulfonamido)ethoxy)acetamide] | 16% | 4%
19 | COc1ccc(S(=O)(=O)N2CCC(OCC(=O)NC3CCC(C(c4cccs4)N(C)C)CC3)C2)cc1OC (centres unmarked) [Example 155, 2-(1-(3,4-dimethoxyphenylsulfonyl)pyrrolidin-3-yloxy)-N-(4-((dimethylamino)(thiophen-2-yl)methyl)cyclohexyl)acetamide] | -8% | 1%
